Laboratory results as given in patent EP1319663A1, “Antidepressant folic -, folinic- and glutamic-acid lithium salts” (Dospharma S.A., priority 2001, dated 2003).

Legend:
[1] = Solubility of the lithium salts; format: physicochemical; details: solvents as named in the value
[2] = tested on: rats rendus dépressifs; assay: Despair test in rat (first depression model); format: in vivo; details: dose de 10 mg; per os, twice daily, eight days
Source text: (§1) L'activité antidépressive du mélange folate de lithium - glutamate de lithium a été étudiée sur deux modèles de rats rendus dépressifs. On a utilisé comme molécule de référence, la desméthylimipramine (DMI) et comme produit de comparaison un mélange de carbonate de lithium, d'acide folique et d'acide glutamique dans les mêmes proportions que l'association selon l'invention. Les traitements ont été poursuivis per os avec administration biquotidienne durant huit jours.
Le premier modèle utilisé est le test du désespoir chez le rat (Despair Test). Les rats sont placés pour ce test dans une cuve d'eau tiédie à 27°C sans possibilité de s'échapper. Après une nage de quelques minutes, les animaux s'immobilisent et le temps moyen d'immobilité est chronométré. Il correspond à la phase de dépression. La DMI (antidépresseur de référence) à la dose de 10 mg diminue de 50 % ce temps d'immobilisation. Une courbe effet-dose a été établie avec l'association folate de lithium-glutamate de lithium. Un effet est observé dès la dose de 1 mg/kg. Il est maximum avec une dose de 20 mg/kg. A titre de comparaison, le lithium administré, sous forme de carbonate de lithium avec un mélange d'acide folique et d'acide glutamique, est moins actif sur ce modèle. On constate une potentialisation des effets du lithium lorsqu'il est administré sous forme de folate de lithium et de glutamate de lithium.

[3] = tested on: rats rendus dépressifs; assay: Modified one-way avoidance test in rat (second depression model); format: in vivo; details: dose de 1 mg/kg; per os, twice daily, eight days
Source text: as §1
Le second test pratiqué est un test à voie unique (one-way)modifié. Dans un premier temps on apprend aux rats à passer d'un compartiment à un autre pour éviter un choc électrique. Les rats sélectionnés qui donnent systématiquement la réponse d'évitement sont placés dans un système à quatre compartiments avec retour au premier compartiment. Les animaux apprennent à éviter le choc électrique en passant du compartiment I à II, puis II à III et […]. Le passage de IV vers I pose un problème puisque les rats reconnaissent (ou sentent) le point de départ.
Les rats s'immobilisent en position de « freezing » en dépit des décharges électriques qu'ils reçoivent. Le temps requis pour amener l'immobilisation correspond à une phase de dépression.

Compound | solubilité [1] | diminution du temps d'immobilisation [2] [%] | effet sur le temps d'immobilisation (freezing) [3]
folinate de lithium [folinate lithié] | solubles dans l'eau et les alcools |  | 
folate de lithium | solubles dans l'eau et les solvants hydroxylés |  | 
CNCCCN1c2ccccc2CCc2ccccc21 [DMI, desméthylimipramine] |  | 50 | supprime complètement ce temps d'immobilisation
